In the supplement of paper PMC10307832 one finds relative viability data, which are given here for 1 cell line.

What all share (assay): relative viability (nuclei count vs DMSO), 5 days (fraction); higher = more cells survive
Compound in assay [1]: C1/C(=C\C2=CC=CS2)/C(=O)/C(=C/C3=CC=CS3)/C1 + CC(=O)Nc1cccc(-n2c(=O)n(C3CC3)c(=O)c3c(Nc4ccc(I)cc4F)n(C)c(=O)c(C)c32)c1 [Trametinib] (partner 0.02 µM)
Summed up:
(§1)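 Lung cancer cell lines were pin-tool dosed in 1536-well plates on the day after seeding, with either a lone drug or a fixed anchor-drug dose plus five library-drug doses (not always all listed) in √10 steps. Nuclei were counted on 4× images after 5 days. Relative viability is the ratio of treated-well to vehicle-well nuclei counts, with each value a median of duplicate plates.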

Compound in assay [2]: C1/C(=C\C2=CC=CS2)/C(=O)/C(=C/C3=CC=CS3)/C1 + COc1cc2c(Oc3ccc(NC(=O)C4(C(=O)Nc5ccc(F)cc5)CC4)cc3F)ccnc2cc1OCCCN1CCOCC1 [Foretinib] (partner 0.25 µM)
The essentials: as §1

Compound in assay [3]: C1/C(=C\C2=CC=CS2)/C(=O)/C(=C/C3=CC=CS3)/C1 + O=C(CCCCCCC(=O)Nc1ccccc1)NO [Vorinostat] (partner 1 µM)
The essentials: as §1

Consider UMC-11, for which the relative viability came to 0.69 in assay [1] (first compound 0.2 µM); 0.737 in assay [1] (first compound 0.6325 µM); 0.675 in assay [1] (first compound 2 µM); 0.671 in assay [1] (first compound 6.325 µM); 0.715 in assay [1] (first compound 20 µM); 0.993 in assay [2] (first compound 0.2 µM). For the same cell line, the relative viability in assay [2] (first compound 0.6325 µM) is 1.12; in assay [2] (first compound 20 µM) it was 1.03; in assay [3] (first compound 0.2 µM) it was 0.361; in assay [3] (first compound 0.6325 µM), 0.36; in assay [3] (first compound 2 µM), 0.43; in assay [3] (first compound 6.325 µM) it was 0.26. The relative viability in assay [3] (first compound 20 µM) came out at 0.394.
